Source: patent publication US20240190841A1, “MODULATORS OF BCL6 PROTEOLYSIS AND ASSOCIATED METHODS OF USE” (Arvinas Operations, Inc., priority 2022, published 2024)

Target: T1, BCL6 (Homo sapiens, UniProt P41182)
T1 construct: endogenous in cells; host or cells: T47D breast cancer epithelial cells
Assay: Immunofluorescence high content imaging of BCL6 degradation in T47D cells
Assay type: cell-based
Settings: T47D breast cancer epithelial cells, 3 days incubation
Experimental: Immunofluorescence Protocol for High Content Imaging of BCL6
T47D cells were seeded in 100 μl volume of RPMI11640-10% FBS in a 96-well black/clear bottom plates for adherent lines (Corning #3904).
Day 1. T47D breast cancer epithelial cells were seeded at a density so that confluence is ˜70-90% at endpoint. Cells were seeded at 7K/0.1 mL/well the morning prior to the addition of exemplary bifunctional degradation compounds.
Day 2. Prepare an 11 point 3-fold serial dilution of exemplary bifunctional compound in DMSO and aliquot an appropriate volume to cell growth media to generate a 2× final concentration of exemplary bifunctional compound. Add an equal volume (0.1 ml) of 2× exemplary bifunctional compound/media mix to previously plated cells, for a final top concentration in aqueous cell growth media of 0.1 or 1 μM. Incubate for 3 days at 37° C., 5% CO2.
Day 5 Immunofluorescence. Discard cell media. Wash wells with 200 μl of room temperature phosphate-buffered saline (PBS). Prepared 4% paraformaldehyde (PFA) from 16% PFA (Electron Microscopy Sciences #15710) using 1×PBS. Fifty μL of 4% PF was added to each well and incubate for 15 minutes at room temperature to fix the cells. The PFA was aspirated and the cells washed twice with PBS (200 μL)).
Prepared 0.1% Triton X-100 in PBS using 10% triton X-100 stock. The cells were permeabilized by adding 100 μL of the 0.1% Triton X-100 in PBS to each well to permeabilize cells and incubating at room temperature for 15 minutes. Cells were washed twice with PBS.
Prepared 3% BSA/PBS (from Thermofisher #37515 Blocker BSA in TBS, 10%), and 100 μL was added to each well. The cells were incubated for at least 1 hour at room temperature.
Prepared 1% BSA/PBS using Blocker BSA/PBS, and the 3% BSA/PBS removed from the wells.
For no primary antibody controls, 50 μL 1% BSA/PBS was added.
Primary antibody (BCL6 Rb Ab, CST-14895, Cell Signaling) was diluted 1:300 in 1% BSA/PBS using Blocker BSA/PBS.
Fifty μl of primary antibody added to all remaining wells (i.e., all wells other than the primary antibody controls) and the cells were incubated overnight at 4° C. with slow orbital movement.
Day 6. Contents of the wells was removed and the cells washed four times with 200 μL PBS. 1% BSA/PBS was prepared using Blocker BSA in PBS.
Diluted secondary antibody goat anti-Rb IgG Alexa-488 1:1000, and cell mask-Alexa-647 1:3000 in 1% BSA/PBS in the same mix. Add 50 μL to each well and incubate at room temperature for 1 hour in the dark.
Cells were washed three times with 200 μL PBS, and then incubated for 10 minutes with 100 μL Hoechst dye at 1 μg/mL (20 mM stock) to stain cell nuclei. Wells were then washed with 200 μl PBS, and 100 μL of PBS was added to each well and the plate covered plate with a plastic opaque cover. Plates were stored at […] and covered in aluminum foil until imaged.
Plates were equilibrated to room temperature prior to reading. The bottom of the plate was wiped with 70% isopropanol immediately prior to imaging.
Imaging: • 10×, 4 fields/well, include Top hat smoothing in the analysis protocol.
Supplies/Reagents: • 16% paraformaldehyde: Electron Microscopy Sciences #15710 • Hoechst: Thermofisher #62249 • Blocker BSA in PBS, 10%: Thermofisher #37515 • Blocker BSA in TBS, 10%: Thermofisher #37520 • Goat anti-rabbit or mouse AlexaFluor-488: Thermofisher #A11008 • Cell mask deep red AlexaFluor-647: Thermofisher #C10046 • Wash buffer, PBS: 20×PBS, Thermofisher

Compound | DC50 [nM] | Dmax [%]
CNC(=O)COc1cc2cc(Nc3nc(N4CCC(O[C@H]5C[C@H](N6CCN(c7ccc8c(c7F)[C@@H](C)N([C@H]7CCC(=O)NC7=O)C8=O)[C@H](C)C6)C5)CC4)ncc3Cl)ccc2n(C(C)C)c1=O (single isomer, unassigned) [Compound 30] | 10 to 50 | < 50
CNC(=O)COc1cc2cc(Nc3nc(N4CCC(O[C@H]5C[C@H](N6CCN(c7ccc8c(c7F)[C@@H](C)N([C@@H]7CCC(=O)NC7=O)C8=O)[C@H](C)C6)C5)CC4)ncc3Cl)ccc2n(C(C)C)c1=O (single isomer, unassigned) [Compound 31] | < 10 | 
CNC(=O)COc1cc2cc(Nc3nc(N4CCC(O[C@H]5C[C@H](N6CCN(c7ccc8c(c7Cl)[C@@H](C)N([C@H]7CCC(=O)NC7=O)C8=O)[C@H](C)C6)C5)CC4)ncc3Cl)ccc2n(C(C)C)c1=O (single isomer, unassigned) [Compound 32] | < 10 | ≥ 70
CNC(=O)COc1cc2cc(Nc3nc(N4CCC(O[C@H]5C[C@H](N6CCN(c7ccc8c(c7Cl)[C@@H](C)N([C@@H]7CCC(=O)NC7=O)C8=O)[C@H](C)C6)C5)CC4)ncc3Cl)ccc2n(C(C)C)c1=O (single isomer, unassigned) [Compound 33] | < 10 | ≥ 70
CNC(=O)COc1cc2cc(Nc3nc(N4CCC(O[C@H]5C[C@H](N6CCN(c7ccc8c(c7Cl)[C@H](C)N([C@H]7CCC(=O)NC7=O)C8=O)[C@H](C)C6)C5)CC4)ncc3Cl)ccc2n(C(C)C)c1=O (single isomer, unassigned) [Compound 34] | 10 to 50 | < 50
CNC(=O)COc1cc2cc(Nc3nc(N4CCC(O[C@H]5C[C@H](N6CCN(c7ccc8c(c7Cl)[C@H](C)N([C@@H]7CCC(=O)NC7=O)C8=O)[C@H](C)C6)C5)CC4)ncc3Cl)ccc2n(C(C)C)c1=O (single isomer, unassigned) [Compound 35] | < 10 | 50 to 70
CNC(=O)COc1cc2cc(Nc3nc(N4CCC(O[C@H]5C[C@H](N6CCC(c7cccc8c7n(C)c(=O)n8C7CCC(=O)NC7=O)CC6)C5)CC4)ncc3Cl)ccc2n(C(C)C)c1=O (stereo partly drawn) [Compound 1, 2-({6-[(5-chloro-2-{4-[(1r,3r)-3-{4-[1-(2,6-dioxopiperidin-3-yl)-3-methyl-2-oxo-2,3-dihydro-1H-1,3-benzodiazol-4-yl]piperidin-1-yl}cyclobutoxy]piperidin-1-yl}pyrimidin-4-yl)amino]-2-oxo-1-(propan-2-yl)-1,2-dihydroquinolin-3-yl}oxy)-N-methylacetamide] | < 10 | ≥ 70
CNC(=O)COc1cc2cc(Nc3nc(N4CCC(O[C@H]5C[C@H](N6CCN(c7cccc8c7n(C)c(=O)n8C7CCC(=O)NC7=O)CC6)C5)CC4)ncc3Cl)ccc2n(C(C)C)c1=O (stereo partly drawn) [Compound 2, 2-({6-[(5-chloro-2-{4-[(1r,3r)-3-{4-[1-(2,6-dioxopiperidin-3-yl)-3-methyl-2-oxo-2,3-dihydro-1H-1,3-benzodiazol-4-yl]piperazin-1-yl}cyclobutoxy]piperidin-1-yl}pyrimidin-4-yl)amino]-2-oxo-1-(propan-2-yl)-1,2-dihydroquinolin-3-yl}oxy)-N-methylacetamide] | < 10 | ≥ 70
CNC(=O)COc1cc2cc(Nc3nc(N4CCC(O[C@H]5C[C@H](N6CCN(c7ccc8c(c7)n(C)c(=O)n8C7CCC(=O)NC7=O)CC6)C5)CC4)ncc3Cl)ccc2n(C(C)C)c1=O (stereo partly drawn) [Compound 3, 2-({6-[(5-chloro-2-{4-[(1r,3r)-3-{4-[1-(2,6-dioxopiperidin-3-yl)-3-methyl-2-oxo-2,3-dihydro-1H-1,3-benzodiazol-5-yl]piperazin-1-yl}cyclobutoxy]piperidin-1-yl}pyrimidin-4-yl)amino]-2-oxo-1-(propan-2-yl)-1,2-dihydroquinolin-3-yl}oxy)-N-methylacetamide] | < 10 | ≥ 70
CNC(=O)COc1cc2cc(Nc3nc(N4CCC(O[C@H]5C[C@H](N6CCC(c7ccc8c(c7)n(C)c(=O)n8C7CCC(=O)NC7=O)CC6)C5)CC4)ncc3Cl)ccc2n(C(C)C)c1=O (stereo partly drawn) [Compound 4, 2-({6-[(5-chloro-2-{4-[(1r,3r)-3-{4-[1-(2,6-dioxopiperidin-3-yl)-3-methyl-2-oxo-2,3-dihydro-1H-1,3-benzodiazol-5-yl]piperidin-1-yl}cyclobutoxy]piperidin-1-yl}pyrimidin-4-yl)amino]-2-oxo-1-(propan-2-yl)-1,2-dihydroquinolin-3-yl}oxy)-N-methylacetamide] | < 10 | ≥ 70
CNC(=O)COc1cc2cc(Nc3nc(N4CCC(O[C@H]5C[C@H](N6CCN(c7ccc(NC8CCC(=O)NC8=O)cc7)CC6)C5)CC4)ncc3Cl)ccc2n(C(C)C)c1=O (stereo partly drawn) [Compound 5, 2-({6-[(5-chloro-2-{4-[(1r,3r)-3-(4-{4-[(2,6-dioxopiperidin-3-yl)amino]phenyl}piperazin-1-yl)cyclobutoxy]piperidin-1-yl}pyrimidin-4-yl)amino]-2-oxo-1-(propan-2-yl)-1,2-dihydroquinolin-3-yl}oxy)-N-methylacetamide] | 50 to 100 | 
CNC(=O)COc1cc2cc(Nc3nc(N4CCC(O[C@H]5C[C@H](N6CCN(c7ccc8c(n7)n(C)c(=O)n8C7CCC(=O)NC7=O)CC6)C5)CC4)ncc3Cl)ccc2n(C(C)C)c1=O (stereo partly drawn) [Compound 6, 2-({6-[(5-chloro-2-{4-[(1r,3r)-3-{4-[1-(2,6-dioxopiperidin-3-yl)-3-methyl-2-oxo-1H,2H,3H-imidazo[4,5-b]pyridin-5-yl]piperazin-1-yl}cyclobutoxy]piperidin-1-yl}pyrimidin-4-yl)amino]-2-oxo-1-(propan-2-yl)-1,2-dihydroquinolin-3-yl}oxy)-N-methylacetamide] | < 10 | ≥ 70
CCn1c(=O)n(C2CCC(=O)NC2=O)c2ccc(N3CCN([C@H]4C[C@H](OC5CCN(c6ncc(Cl)c(Nc7ccc8c(c7)cc(OCC(=O)NC)c(=O)n8C(C)C)n6)CC5)C4)CC3)cc21 (stereo partly drawn) [Compound 7] | < 10 | ≥ 70
CNC(=O)COc1cc2cc(Nc3nc(N4CCC(O[C@H]5C[C@H](N6CCN(c7ccc8c(c7F)n(C)c(=O)n8C7CCC(=O)NC7=O)CC6)C5)CC4)ncc3Cl)ccc2n(C(C)C)c1=O (stereo partly drawn) [Compound 8, 2-({6-[(5-chloro-2-{4-[(1r,3r)-3-{4-[1-(2,6-dioxopiperidin-3-yl)-4-fluoro-3-methyl-2-oxo-2,3-dihydro-1H-1,3-benzodiazol-5-yl]piperazin-1-yl}cyclobutoxy]piperidin-1-yl}pyrimidin-4-yl)amino]-2-oxo-1-(propan-2-yl)-1,2-dihydroquinolin-3-yl}oxy)-N-methylacetamide] | < 10 | ≥ 70
CNC(=O)COc1cc2cc(Nc3nc(N4CCC(O[C@H]5C[C@H](N6CCN(c7cc8c(cc7F)n(C7CCC(=O)NC7=O)c(=O)n8C)CC6)C5)CC4)ncc3Cl)ccc2n(C(C)C)c1=O (stereo partly drawn) [Compound 9, 2-({6-[(5-chloro-2-{4-[(1r,3r)-3-{4-[1-(2,6-dioxopiperidin-3-yl)-6-fluoro-3-methyl-2-oxo-2,3-dihydro-1H-1,3-benzodiazol-5-yl]piperazin-1-yl}cyclobutoxy]piperidin-1-yl}pyrimidin-4-yl)amino]-2-oxo-1-(propan-2-yl)-1,2-dihydroquinolin-3-yl}oxy)-N-methylacetamide] | < 10 | ≥ 70
CNC(=O)COc1cc2cc(Nc3nc(N4CCC(O[C@H]5C[C@H](N6CCN(c7cc(F)c8c(c7)n(C)c(=O)n8C7CCC(=O)NC7=O)CC6)C5)CC4)ncc3Cl)ccc2n(C(C)C)c1=O (stereo partly drawn) [Compound 10, 2-({6-[(5-chloro-2-{4-[(1r,3r)-3-{4-[1-(2,6-dioxopiperidin-3-yl)-7-fluoro-3-methyl-2-oxo-2,3-dihydro-1H-1,3-benzodiazol-5-yl]piperazin-1-yl}cyclobutoxy]piperidin-1-yl}pyrimidin-4-yl)amino]-2-oxo-1-(propan-2-yl)-1,2-dihydroquinolin-3-yl}oxy)-N-methylacetamide] | < 10 | ≥ 70
